Like-named read-outs stand apart in the source and are kept apart here. Blank lines part the entries; values can stand above or below the molecule they belong to.
Tests used:
[1] = Dynamic vapor sorption (DVS), sorption/desorption 5% to 95% RH; type: physicochemical
Text: Dynamic vapor sorption data was collected on a Surface Measurement System DVS Intrinsic instrument. The samples were not dried prior to analysis. […] Data were not corrected for the initial moisture content of the sample.

[2] = Description: The aqueous solvents were water, 5% dextrose, 0.9% sodium chloride, Fasted State Simulated Intestinal Fluid (FaSSIF), Fed State Simulated Intestinal Fluid (FeSSIF) and Fasted State Simulated Gastric Fluid (FaSSGF). The organic solvents were methanol, ethanol, isopropanol and acetonitrile.
These fluids were prepared per the instruction listed by Biorelevant (Biorelevant.com). Each buffer concentrate was diluted with water and mixed well. FaSSIF, FeSSIF, FaSSGF powder was added to each buffer and mixed to completely dissolve the powder. Buffers were stored at room temperature and used within 48 hours of preparation.
Aliquots of each solvent were added to each sample and vortexed for about one minute until excess solid remained. Samples were placed on shaker at room temperature with 210 motion per minute shaking.
After one day, samples were pulled and checked if excess solid was present. About 1.5 mL aliquot of each sample was centrifuged at 12000 rpm for 12 to 15 minutes. […] Aliquots of the top clear solution of each centrifuged sample in MeOH, EtOH, IPA and ACN were diluted with diluent (water:MeOH 95:5) and assayed by HPLC.
A linear standard curve was constructed using standards with concentration between 11 μg/mL to 1.5 mg/mL as free acid forcing the curve to origin. Solubilities are reported as mg/mL free acid 25HC3S. Detection limit (LOD) of the HPLC method was calculated as 0.0007 mg/mL.

[3] = remark: listed apart in the source
Description: Four vials were prepared and stored at 2-8° C. or […] according to Table B2. The samples were scheduled initially to pull for testing at 3 weeks and 6 weeks time points.
For appearance, each unopened vial was visually examined for color, clumping, and flowability.
Samples were prepared by pipetting 20 mL of 100% methanol into each vial and mixing well, with sonication and vortexing to fully dissolve the samples for HPLC analysis.
HPLC analysis was performed.

[4] = by angle of repose
Description: Angle of repose is measured as follows. Powder is poured from a funnel onto a flat surface until a cone of powder is created. The angle of repose is calculated according to the following equation:
[formula] • Where: • h: height of the cone (mm) • r: radius of the cone (mm)
The height of the cone was estimated with calipers.

[5] = by compressibility index and Hausner ratio
Description: Although there are some variations in the method of determining the compressibility index and Hausner ratio, the basic procedure is to measure the unsettled apparent volume, VO, and the final tapped volume, Vf, of the powder after tapping the material until no further volume changes occur. The compressibility index and the Hausner ratio are calculated as follows: […]
Powder was carefully poured into a 5 mL glass graduated cylinder (to contain) until it was close to or at 5.0 mL. This initial volume was recorded as Vo. The graduated cylinder was tapped on a hard surface for 200 times and the volume was recorded. The cylinder was tapped 100 times more, and the final volume Vf was recorded.

[6] = Biorelevant drug release, USP Apparatus 2, 0-30 min FaSSGF then FaSSGF + double strength FaSSIF; type: physicochemical; settings: at 90 minutes, biorelevant media
Description: Biorelevant media as used herein is a combination of 2 different media used at different times. The first is in FaSSGF which stands for Fasted-state simulated gastric fluid and is used for 30 minutes of drug release. Afterwards, drug release is measured with addition of double strength FaSSIF which is Fasted-state simulated intestinal fluid. A skilled artisan would understand that the double strength FaSSIF is added at 30 minutes.
As used herein, the biorelevant drug release was conducted using a USP Apparatus 2 with (1) 0-30 minutes in 450 mL FaSSGF; and (2) 30-90 minutes FaSSGF+double strength FaSSIF in a total of 900 mL of media with pH adjusted to 6.5; with a paddle speed of 75 rpm (0-75 minutes) and 250 rpm (75-90 minutes) and a vessel temperature of 37° C.

[7] = after jet milling
Description: Crystalline 25HC3S was placed in a JAM-2-2002 mill under nitrogen and milled. The materials were then placed into product containers. Jet milling was conducted at a feed rate of 300 g/hour, with a venturi pressure of 50 psi and mill pressure of 120 psi of nitrogen. The target specification was set to having a Dv (90) of less than 10 microns.

[8] = Clinical study: safety and tolerability of oral doses of 25HC3S; type: in vivo, healthy male and female subjects
Text: The secondary objective for both Parts 1 and 2 of the study was: • To provide information on the safety and tolerability of oral doses of 25HC3S in healthy subjects
The evaluation of safety parameters comprised analysis of adverse events, laboratory variables (hematology, clinical chemistry and urinalysis), vital signs, electrocardiograms (ECGs) and physical examination findings.

weight loss on the return to 5% relative humidity ([1]; DVS desorption 95% to 5% RH): 0.5%
Solubility in 0.9% Sodium Chloride [2]: low solubility
Solubility in 5% Dextrose [2]: 0.093 mg/mL as Free Acid
Solubility in ACN [2]: 0.5 mg/mL as Free Acid
Solubility in EtOH [2]: 3.4 mg/mL as Free Acid
Solubility in IPA [2]: 0.6 mg/mL as Free Acid
Solubility in MeOH [2]: 17.5 mg/mL as Free Acid
Solubility in Water [2]: 0.107 mg/mL as Free Acid
% Impurities 25-HC (25-Hydroxy-Cholesterol) ([3]; 2-8° C., 3 wk): 0.2%
% Impurities SD (Sulfate Desmosterol) ([3]; 2-8° C., 3 wk): 0.4%
% Impurities Total ([3]; 2-8° C., 3 wk): 1.0%
Appearance ([3]; 2-8° C., 3 wk): White, free flowing powder with clumping
Assay ([3]; 2-8° C., 3 wk): 101.6 % w/w
% Impurities 25-HC (25-Hydroxy-Cholesterol) ([3]; 2-8° C., 5 wk): 0.2%
% Impurities SD (Sulfate Desmosterol) ([3]; 2-8° C., 5 wk): 0.3%
% Impurities Total ([3]; 2-8° C., 5 wk): 0.9%
Appearance ([3]; 2-8° C., 5 wk): White, free flowing powder with clumping
Assay ([3]; 2-8° C., 5 wk): 108.1 % w/w
% Impurities 25-HC (25-Hydroxy-Cholesterol) ([3]; 80° C., 3 wk): 0.4%
% Impurities SD (Sulfate Desmosterol) ([3]; 80° C., 3 wk): 0.4%
% Impurities Total ([3]; 80° C., 3 wk): 1.2%
% Recovery of 2-8° C./3 wk VS 80° C../3 wk ([3]; 80° C., 3 wk): 100.8%
Appearance ([3]; 80° C., 3 wk): White, free flowing powder with clumping
Assay ([3]; 80° C., 3 wk): 102.4 % w/w
% Impurities 25-HC (25-Hydroxy-Cholesterol) ([3]; 80° C., 5 wk): 0.2%
% Impurities SD (Sulfate Desmosterol) ([3]; 80° C., 5 wk): 0.8%
% Impurities Total ([3]; 80° C., 5 wk): 2.2%
% Recovery of 2-8º C./5 wk VS 80° C./5 wk ([3]; 80° C., 5 wk): 97.3%
Appearance ([3]; 80° C., 5 wk): White, free flowing powder with clumping
Assay ([3]; 80° C., 5 wk): 105.2 % w/w
Flow Property per USP<1174> Powder Flow [4]: Good (31-35)
Scale of Flowability per USP<1174> (Flow Character) [5]: Very, very poor (>38)
drug release [6]: ~ 10%
Compound: C[C@H](CCCC(C)(C)O)[C@H]1CC[C@H]2[C@@H]3CC=C4C[C@@H](OS(=O)(=O)[O-])CC[C@]4(C)[C@H]3CC[C@]12C.C[N+](C)(C)CCO [25HC3S choline, 25-hydroxy-3β-cholesten-5-en-3-sulfate (25HC3S) choline]

composite Dv (90) [7]: 4 microns
Compound: C[C@H](CCCC(C)(C)O)[C@H]1CC[C@H]2[C@@H]3CC=C4C[C@@H](OS(=O)(=O)[O-])CC[C@]4(C)[C@H]3CC[C@]12C.C[N+](C)(C)CCO [Micronized 25HC3S choline]

water uptake (DVS isotherm, in words) ([1]; until about 95% relative humidity, batch containing Form I and Form II): significant water uptake
Compound: C[C@H](CCCC(C)(C)O)[C@H]1CC[C@H]2[C@@H]3CC=C4C[C@@H](OS(=O)(=O)[O-])CC[C@]4(C)[C@H]3CC[C@]12C.[Na+] [crystalline 25HC3S sodium, Sodium [(3S,10R,13R,17R)-17-[(1R)-5-hydroxy-1,5-dimethyl-hexyl]-10,13-dimethyl-2,3,4,7,8,9,11,12,14,15,16,17-dodecahydro-1H-cyclopenta[a]phenanthren-3-yl]sulfate, reference compound]

Compound: C[C@H](CCCC(C)(C)O)[C@H]1CCC2C3CC=C4C[C@@H](OS(=O)(=O)O)CC[C@]4(C)C3CC[C@@]21C (stereo partly drawn) [Tablet 25HC3S, [(3S,10R,13R,17R)-17-[(1R)-5-hydroxy-1,5-dimethyl-hexyl]-10,13-dimethyl-2,3,4,7,8,9,11,12,14,15,16,17-dodecahydro-1H-cyclopenta[a]phenanthren-3-yl]sulfate]
subjects reporting TEAEs, overall ([8]; 16 subjects, all TEAEs mild, not related to IMP): 2 (12.5%)
serious or severe TEAEs or deaths ([8]; all regimens): No serious, severe treatment-emergent adverse events (TEAEs) or deaths were reported
tolerability ([8]; choline salt IR formulations up to 50 mg fed and fasted, sodium salt PiB and choline salt PiB 12.5 mg fasted): well tolerated
total number of TEAEs ([8]; overall): 4
